Source: patent US11845760B2, “PRMT5 inhibitors” (AMGEN INC., priority 2020, dated 2023)

Experiments:
HCT116 MTAP null cells = experiment: HCT116 MTAP null cell line proliferation (CellTiter-Glo cell viability, 6 days); format: cell-based; settings: HCT116-MTAP null, 144 h, HCT116 MTAP null cells, 6 days of treatment, CellTiter-Glo cell viability; read-out: HCT-116 MTAP null IC50
In short: (§1)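 Isogenic HCT116 pair (parent and MTAP double-allele knockout) in RPMI 1640 + 10% FBS, exposed 6 days to compound: 8–9-point 1:3 dilutions from 1 or 10 μM top, or 22-point 1:2 dilutions from 10 or 50 μM top. CellTiter-Glo luminescence; IC50 from sigmoidal fit (Hill −1) or 4-parameter logistic.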

HCT116 WT cells = experiment: HCT116 WT cell line proliferation (CellTiter-Glo cell viability, 6 days); format: cell-based; settings: Homo sapiens, HCT-116, 144 h, HCT116 WT (parent) cells, 6 days of treatment, CellTiter-Glo cell viability; read-out: HCT-116 WT IC50
In short: as §1

SMILES | IC50 (HCT116 MTAP null cells) [µM] | IC50 (HCT116 WT cells) [µM]
CCOc1ccc(C2COCCN2C(=O)c2cc3c4c(c(N)nc3cc2F)COC4)nn1 (racemic) [Example 392, (4-amino-7-fluoro-1,3-dihydrofuro[3,4-c]quinolin-8-yl)((3R)-3-(6-ethoxy-3-pyridazinyl)-4-morpholinyl)methanone and (4-amino-7-fluoro-1,3-dihydrofuro[3,4-c]quinolin-8-yl)((3S)-3-(6-ethoxy-3-pyridazinyl)-4-morpholinyl)methanone] | 0.216 | > 10
CCOc1ccc([C@@H]2COCCN2C(=O)c2ccc3nc(N)c4c(c3c2)CO[C@@H]4C)nn1 (racemic) [Example 393, ((3R)-4-amino-3-methyl-1,3-dihydrofuro[3,4-c]quinolin-8-yl)((3R)-3-(6-ethoxy-3-pyridazinyl)-4-morpholinyl)methanone and ((3R)-4-amino-3-methyl-1,3-dihydrofuro[3,4-c]quinolin-8-yl)((3S)-3-(6-ethoxy-3-pyridazinyl)-4-morpholinyl)methanone] | 0.971 | > 50
Nc1nc2cc(F)c(C(=O)N3CCC(c4ccc(C(F)(F)F)cn4)C3)cc2c2c1COC2 (racemic) [Example 412, (4-amino-7-fluoro-1,3-dihydrofuro[3,4-c]quinolin-8-yl)((3R)-3-(5-(trifluoromethyl)-2-pyridinyl)-1-pyrrolidinyl)methanone and (4-amino-7-fluoro-1,3-dihydrofuro [3,4-c]quinolin-8-yl)((3S)-3-(5-(trifluoromethyl)-2-pyridinyl)-1-pyrrolidinyl)methanone] | 0.725 | 20.8
C[C@H]1OCc2c1c(N)nc1ccc(C(=O)N3C[C@@H](c4ccccc4)[C@H](c4ccccc4)C3)cc21 (racemic) [Example 431, ((3R)-4-amino-3-methyl-1,3-dihydrofuro[3,4-c]quinolin-8-yl)((3R,4R)-3,4-diphenyl-1-pyrrolidinyl)methanone and ((3R)-4-amino-3-methyl-1,3-dihydrofuro[3,4-c]quinolin-8-yl)((3S,4S)-3,4-diphenyl-1-pyrrolidinyl)methanone] | 0.337 | 11.4
C[C@H]1OCc2c1c(N)nc1ccc(C(=O)N3C[C@@H](c4ccc(F)cc4)[C@H](c4cc[nH]n4)C3)cc21 (racemic) [Example 434, ((3R)-4-amino-3-methyl-1,3-dihydrofuro[3,4-c]quinolin-8-yl)((3R,4S)-3-(4-fluorophenyl)-4-(1H-pyrazol-3-yl)-1-pyrrolidinyl)methanone and ((3R)-4-amino-3-methyl-1,3-dihydrofuro[3,4-c]quinolin-8-yl)((3S,4R)-3-(4-fluorophenyl)-4-(1H-pyrazol-3-yl)-1-pyrrolidinyl)methanone] | 0.468 | 8.22
Nc1nc2ncc(C(=O)N3CCOCC3c3ccc(C(F)(F)F)cc3)cc2c2c1COC2 (racemic) [Example 483, rac-(4-amino-1,3-dihydrofuro[3,4-c][1,8]naphthyridin-8-yl)(3-(4-(trifluoromethyl)phenyl)morpholino)methanone] | > 1 | > 10
N#Cc1cnc(C2COCCN2C(=O)c2ccc3nc(N)c4c(c3c2)COC4)cc1Cl (racemic) [Example 492, 4-chloro-6-[rac-(3S)-4-(4-amino-1,3-dihydrofuro[3,4-c]quinoline-8-carbonyl)morpholin-3-yl]pyridine-3-carbonitrile] | 0.764 | 0.318
Nc1nc2ccc(C(=O)N3CCOCC3c3ccccc3)cc2c2c1COC2 (racemic) [Example 493, (4-amino-1,3-dihydrofuro[3,4-c]quinolin-8-yl)-[rac-(3S)-3-phenylmorpholin-4-yl]methanone] | > 1 | > 10
Nc1nc2cnc(C(=O)N3CCOCC3c3ccc(C(F)(F)F)cn3)cc2c2c1COC2 (racemic) [Example 494, (4-amino-1,3-dihydrofuro[3,4-c][1,7]naphthyridin-8-yl)-[rac-(3S)-3-[5-(trifluoromethyl)-2-pyridyl]morpholin-4-yl]methanone] | 0.352 | 14
Nc1nc2ccc(C(=O)N3CCOCC3c3ccc(OC(F)F)cc3)cc2c2c1COC2 (racemic) [Example 496, (4-amino-1,3-dihydrofuro[3,4-c]quinolin-8-yl)((3R)-3-(4-(difluoromethoxy)phenyl)-4-morpholinyl)methanone and (4-amino-1,3-dihydrofuro[3,4-c]quinolin-8-yl)((3S)-3-(4-(difluoromethoxy)phenyl)-4-morpholinyl)methanone] | 0.486 | 19.8
Cn1ncc2c3cc(C(=O)N4CCOCC4c4ccc(C(F)(F)F)cc4)ccc3nc(N)c21 (racemic) [Example 497, (4-amino-3-methyl-3H-pyrazolo[3,4-c]quinolin-8-yl)((3R)-3-(4-(trifluoromethyl)phenyl)-4-morpholinyl)methanone and (4-amino-3-methyl-3H-pyrazolo[3,4-c]quinolin-8-yl)((3S)-3-(4-(trifluoromethyl)phenyl)-4-morpholinyl)methanone] | 0.477 | 26
Cn1ncc2c3cc(C(=O)N4CCOCC4c4ccc(OC(F)(F)F)cc4)ccc3nc(N)c21 (racemic) [Example 498, (4-amino-3-methyl-3H-pyrazolo[3,4-c]quinolin-8-yl)((3R)-3-(4-(trifluoromethoxy)phenyl)-4-morpholinyl)methanone and (4-amino-3-methyl-3H-pyrazolo[3,4-c]quinolin-8-yl)((3S)-3-(4-(trifluoromethoxy)phenyl)-4-morpholinyl)methanone] | 0.711 | 21.5
Cn1ncc2c3cc(C(=O)N4CCOCC4c4ccc(C(F)(F)F)cn4)ccc3nc(N)c21 (racemic) [Example 499, (4-amino-3-methyl-3H-pyrazolo[3,4-c]quinolin-8-yl)((3R)-3-(5-(trifluoromethyl)-2-pyridinyl)-4-morpholinyl)methanone and (4-amino-3-methyl-3H-pyrazolo[3,4-c]quinolin-8-yl)((3S)-3-(5-(trifluoromethyl)-2-pyridinyl)-4-morpholinyl)methanone] | 1.1 | 36.6
Nc1nc2ccc(C(=O)N3CCOCC3c3ccc(Br)nn3)cc2c2c1COC2 (racemic) [Example 500, (4-amino-1,3-dihydrofuro[3,4-c]quinolim-8-yl)-[rac-(3S)-3-(6-bromopyridazin-3-yl)morpholin-4-yl]methanone] | > 1 | > 10
Nc1nc2cnc(C(=O)N3CCOCC3c3c(F)cc(Br)cc3F)cc2c2c1COC2 (racemic) [Example 505, (4-amino-1,3-dihydrofuro[3,4-c][1,7]naphthyridin-8-yl)((3R)-3-(4-bromo-2,6-difluorophenyl)-4-morpholinyl)methanone and (4-amino-1,3-dihydrofuro[3,4-c][1,7]naphthyridin-8-yl)((3S)-3-(4-bromo-2,6-difluorophenyl)-4-morpholinyl)methanone] | 0.33 | 21.5
Nc1nc2ccc(C(=O)N3CCOCC3c3ccc(CC(F)(F)F)cc3)cc2c2c1COC2 (racemic) [Example 508, (4-amino-1,3-dihydrofuro[3,4-c]quinolin-8-yl)((3R)-3-(4-(2,2,2-trifluoroethyl)phenyl)-4-morpholinyl)methanone and (4-amino-1,3-dihydrofuro[3,4-c]quinolin-8-yl)((3S)-3-(4-(2,2,2-trifluoroethyl)phenyl)-4-morpholinyl)methanone] | 0.603 | 6.61
Nc1nc2cnc(C(=O)N3CCOCC3c3ccc(CC(F)(F)F)cc3)cc2c2c1COC2 (racemic) [Example 509, (4-amino-1,3-dihydrofuro[3,4-c][1,7]naphthyridin-8-yl)((3R)-3-(4-(2,2,2-trifluoroethyl)phenyl)-4-morpholinyl)methanone and (4-amino-1,3-dihydrofuro[3,4-c][1,7]naphthyridin-8-yl)((3S)-3-(4-(2,2,2-trifluoroethyl)phenyl)-4-morpholinyl)methanone] | 0.325 | 10.6
Cc1ccc(C2COCCN2C(=O)c2ccc3nc(N)c4c(c3c2)COC4)cn1 (racemic) [Example 512, (4-amino-1,3-dihydrofuro[3,4-c]quinolin-8-yl)-[rac-(3R)-3-(6-methyl-3-pyridyl)morpholin-4-yl]methanone] | > 1 | > 10
Nc1nc2ccc(C(=O)N3CCOCC3c3ccc(C(F)(F)F)nc3)cc2c2c1COC2 (racemic) [Example 513, (4-amino-1,3-dihydrofuro[3,4-c]quinolin-8-yl)-[rac-(3S)-3-[6-(trifluoromethyl)-3-pyridyl]morpholin-4-yl]methanone] | 0.38 | > 10
Cn1ncc2c(N)nc3cc(F)c(C(=O)N4CCC(c5ccc(C(F)(F)F)cn5)C4)cc3c21 (racemic) [Example 541, (4-amino-7-fluoro-1-methyl-1H-pyrazolo[4,3-c]quinolin-8-yl)((3R)-3-(5-(trifluoromethyl)-2-pyridinyl)-1-pyrrolidinyl)methanone and (4-amino-7-fluoro-1-methyl-1H-pyrazolo[4,3-c]quinolin-8-yl)((3S)-3-(5-(trifluoromethyl)-2-pyridinyl)-1-pyrrolidinyl)methanone] | 0.056 | 5.33
Nc1nc2cc(Cl)c(C(=O)N3CCC(c4ccc(C(F)(F)F)cn4)C3)cc2c2c1COC2 (racemic) [Example 542, (4-amino-7-chloro-1,3-dihydrofuro[3,4-c]quinolin-8-yl)((3R)-3-(5-(trifluoromethyl)-2-pyridinyl)-1-pyrrolidinyl)methanone and (4-amino-7-chloro-1,3-dihydrofuro[3,4-c]quinolin-8-yl)((3S)-3-(5-(trifluoromethyl)-2-pyridinyl)-1-pyrrolidinyl)methanone] | 0.235 | 12.5
